Measured values as given in US6610665B1 (Smithkline Beecham Corporation, priority 1998, dated 2003).
Structures can show the parent of a compound that is named as a salt.

Legend:
Assay type in all cases: cell-based
Conditions in all cases: ratio to NECA
[1] = target: T1, adenosine 2a receptor (Homo sapiens, UniProt P29274); assay: Agonist activity, CHO cells transfected with human adenosine receptor and CRE-SPAP reporter; basal cAMP (A2a)
T1 construct: expressed in transfected cells; host or cells: CHO cells
T1 sequence (P29274 whole entry): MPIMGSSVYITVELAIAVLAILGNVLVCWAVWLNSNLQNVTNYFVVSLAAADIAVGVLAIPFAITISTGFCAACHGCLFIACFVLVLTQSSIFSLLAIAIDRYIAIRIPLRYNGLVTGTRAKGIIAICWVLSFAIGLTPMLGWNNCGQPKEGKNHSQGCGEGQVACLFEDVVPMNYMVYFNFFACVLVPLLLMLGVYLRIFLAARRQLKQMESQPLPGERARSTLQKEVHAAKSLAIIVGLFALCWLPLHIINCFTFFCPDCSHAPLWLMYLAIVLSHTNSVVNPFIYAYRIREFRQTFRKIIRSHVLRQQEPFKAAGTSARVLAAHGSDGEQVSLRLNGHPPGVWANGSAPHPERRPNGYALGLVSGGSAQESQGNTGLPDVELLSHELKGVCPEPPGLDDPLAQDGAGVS
Procedure: (§1) (1) Agonist activity against adenosine 2a, adenosine 1 and adenosine 3 receptor subtypes.
(§2) Agonist selectivity of compounds against other human adenosine receptors is determined using Chinese hamster ovary (CHO) cells transfected with the gene for the relevant human adenosine receptor following a method based on that of Castanon and Spevak, 1994. The CHO cells are also transfected with cyclic AMP response elements promoting the gene for secreted placental alkaline phosphatase (SPAP) (Wood, 1995). The effect of test compounds may be determined by their effects on basal levels of CAMP (A2a) or on forskolin-enhanced cAMP (A1 and A3) as reflected by changes in levels of SPAP. EC50 values for compounds may then be determined as a ratio to that of the non-selective agonist N-ethyl carboxamide adenosine (NECA).

[2] = target: T2, adenosine 3 receptor (Homo sapiens, UniProt P0DMS8); assay: Agonist activity, CHO cells transfected with human adenosine receptor and CRE-SPAP reporter; forskolin-enhanced cAMP (A3)
T2 construct: expressed in transfected cells; host or cells: CHO cells
T2 sequence (P0DMS8 1-318): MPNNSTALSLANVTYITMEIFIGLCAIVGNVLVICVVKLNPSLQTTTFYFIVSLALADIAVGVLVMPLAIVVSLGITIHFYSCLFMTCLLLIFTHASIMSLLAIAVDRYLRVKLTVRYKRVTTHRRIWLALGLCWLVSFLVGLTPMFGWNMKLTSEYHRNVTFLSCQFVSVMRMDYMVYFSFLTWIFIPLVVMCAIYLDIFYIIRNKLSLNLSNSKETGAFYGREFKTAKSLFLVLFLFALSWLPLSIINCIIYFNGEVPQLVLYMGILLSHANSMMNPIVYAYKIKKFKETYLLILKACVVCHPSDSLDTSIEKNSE
Procedure: as §1, §2

[3] = target: T3, adenosine 1 receptor (Homo sapiens, UniProt P30542); assay: Agonist activity, CHO cells transfected with human adenosine receptor and CRE-SPAP reporter; forskolin-enhanced cAMP (A1)
T3 construct: expressed in transfected cells; host or cells: CHO cells
T3 sequence (P30542 1-326): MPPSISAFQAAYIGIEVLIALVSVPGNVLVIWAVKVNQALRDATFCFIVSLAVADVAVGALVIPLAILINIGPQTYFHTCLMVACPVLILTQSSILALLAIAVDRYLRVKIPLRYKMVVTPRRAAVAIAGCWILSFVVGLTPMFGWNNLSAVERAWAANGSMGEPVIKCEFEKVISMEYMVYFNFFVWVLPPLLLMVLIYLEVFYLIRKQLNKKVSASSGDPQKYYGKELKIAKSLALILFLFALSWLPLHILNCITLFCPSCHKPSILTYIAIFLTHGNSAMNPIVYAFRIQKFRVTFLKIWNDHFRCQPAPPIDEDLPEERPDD
Procedure: as §1, §2

[4] = * data are minimum values since preparation was found, after testing, to contain an inactive impurity
[5] = ** data on retested purified compound

Row | SMILES | A2a, EC50 as a ratio of that of NECA [1, 4] | A3, EC50 as a ratio of that of NECA [2, 4] | A1, EC50 as a ratio of that of NECA [3, 4] | A2a, EC50 as a ratio of that of NECA ([1]; CHO cells, SPAP readout) | A3, EC50 as a ratio of that of NECA ([2]; CHO cells, SPAP readout) | A1, EC50 as a ratio of that of NECA ([3]; CHO cells, SPAP readout) | A2a, EC50 as a ratio of that of NECA [1, 5] | A3, EC50 as a ratio of that of NECA [2, 5] | A1, EC50 as a ratio of that of NECA [3, 5]
1 | CCc1noc(C2OC(n3cnc4c(NCC(c5ccccc5)c5ccccc5)nc(NC5CCNC5)nc43)C(O)C2O)n1 [Example 3, (2R,3R,4S,5S)-2-[6-(2,2-Diphenyl-ethylamino)-2-(pyrrolidin-3R-ylamino)-purin-9-yl]-5-(3-ethyl-[1,2,4]oxadiazol-5-yl)-tetrahydro-furan-3,4-diol formate] | 4.63 | >304 | 6719 | – | – | – | – | – | –
2 | CCc1noc([C@H]2O[C@@H](n3cnc4c(NCC(c5ccccc5)c5ccccc5)nc(NC5CC6CCC5C6)nc43)[C@H](O)[C@@H]2O)n1.O=CO (stereo partly drawn) [Example 41, (2R,3R,4S,5S)-2-{2-(Bicyclo[2.2.1]hept-2-ylamino)-6-(2,2-diphenyl-ethylamino)-purin-9-yl}-5-(3-ethyl-[1,2,4]oxadiazol-5-yl)-tetrahydro-furan-3,4-diol formate] | – | – | – | 23.93 | >130 | 2033.2 | – | – | –
3 | CCc1noc(C2OC(n3cnc4c(NCCC(C)(C)C)nc(NCCc5cn(C)cn5)nc43)C(O)C2O)n1.O=CO.O=CO [Example 48, (2R,3R,4S,5S)-2-{6-(3,3-Dimethyl-butylamino)-2-[2-(1-methyl-1H-imidazol-4-yl)-ethylamino]-purin-9-yl}-5-(3-ethyl-[1,2,4]oxadiazol-5-yl)-tetrahydro-furan-3,4-diol diformate] | – | – | – | 4.40 | >165 | 16.84 | – | – | –
4 | CCC(CC)Nc1nc(NCCN2CCOCC2)nc2c1ncn2[C@@H]1O[C@H](c2nc(C)no2)[C@@H](O)[C@H]1O.O=CO [Example 6, (2R,3R,4S,5S)-2-[6-(1-Ethyl-propylamino)-2-(2-morpholin-4-yl-ethylamino)-purin-9-yl]-5-(3-methyl-[1,2,4]oxadiazol-5-yl)-tetrahydro-furan-3,4-diol formate] | 41.35 | >642 | >4833 | – | – | – | – | – | –
5 | CCc1noc([C@H]2O[C@@H](n3cnc4c(NCC(c5ccccc5)c5ccccc5)nc(NCCO)nc43)[C@H](O)[C@@H]2O)n1.O=CO [Example 43, (2R,3R,4S,5S)-2-[6-(2,2-Diphenyl-ethylamino)-2-(2-hydroxy-ethylamino)-purin-9-yl]-5-(3-ethyl-[1,2,4]oxadiazol-5-yl)-tetrahydro-furan-3,4-diol formate] | – | – | – | 6.85 | >130 | 1367.6 | – | – | –
6 | CCc1noc(C2OC(n3cnc4c(N)nc(NC(CO)Cc5ccccc5)nc43)C(O)C2O)n1 [Example 9, (2R,3R,4S,5S)-2-[6-Amino-2-(1S-hydroxymethyl-2-phenyl-ethylamino)-purin-9-yl]-5-(3-ethyl-[1,2,4oxadiazol-5-yl)-tetrahydro-furan-3,4-diol formate] | 0.81 | >231 | 1692.4 | – | – | – | 0.086 | >287 | 3006
7 | CCC(CC)Nc1nc(NC2CCCC2)nc2c1ncn2[C@@H]1O[C@H](c2nc(C)no2)[C@@H](O)[C@H]1O.O=CO [Example 22] | – | – | – | 22.25 | >193 | 78.28 | – | – | –
8 | CCc1noc(C2OC(n3cnc4c(NC(CC)CC)nc(NC5CCNC5)nc43)C(O)C2O)n1 [Example 27, (2S,3S,4R,5R)-2-(3-Ethyl-[1,2,4]oxadiazol-5-yl)-5-[6-(1-ethyl-propylamino)-2-(pyrrolidin-3R-ylamino)-purin-9-yl]-tetrahydro-furan-3,4-diol formate] | 10.5 | >284 | 263.14 | – | – | – | – | – | –
9 | CCc1noc([C@H]2O[C@@H](n3cnc4c(NC(CC)CC)nc(NCCc5ccccn5)nc43)[C@H](O)[C@@H]2O)n1.O=CO [Example 21, (2S,3S,4R,5R)-2-(3-Ethyl-[1,2,4]oxadiazol-5-yl)-5-[6-(1-ethyl-propylamino)-2-(2-pyridin-2-yl-ethylamino)-purin-9-yl]-tetrahydro-furan-3,4-diol formate] | 9.39 | >303 | >5090 | – | – | – | – | – | –
10 | CCC(CC)Nc1nc(NC2CCNC2)nc2c1ncn2C1OC(c2nc(C)no2)C(O)C1O [Example 26, (2R,3R,4S,5S)-2-[6-(1-Ethyl-propylamino)-2-(pyrrolidin-3R-ylamino)-purin-9-yl]-5-(3-methyl-[1,2,4]oxadiazol-5-yl)-tetrahydro-furan-3,4-diol formate] | 5.18 | >284 | >5264 | – | – | – | – | – | –
11 | CCC(CC)Nc1nc(NCCN2CCOCC2)nc2c1ncn2C1OC(c2nc(C3CC3)no2)C(O)C1O.O=CO.O=CO (stereo not drawn) [Example 36] | – | – | – | 20.13 | >194 | >9364 | – | – | –
